Reference: patent publication US20160077077A1, “Zinc Fluorescent Probe” (The Procter & Gamble Company, priority 2014, published 2016)

Experiments:
[1] = Assessing Zn chelation effectiveness (R3 fluorescence with various zinc compounds)
Protocol: Another application of the composition of the present invention is assessing the effectiveness of a zinc chelator or a zinc chelating system. One aspect of the invention provides a method of assessing the Zn^2+ chelating effectiveness of Zn^2+ chelator or a Zn^2+ chelating system comprising the steps: (a) incubating the Zn^2+ chelator or a Zn^2+ chelating system with a compound of the present invention; (b) shining excitation light to the incubated Zn^2+ chelator or a Zn^2+ chelating system; and (c) detecting light emission from the compound from 560 nm to 660 nm.
There are at least three variables that may affect zinc chelation. Firstly, the inherent characteristic of any particularly zinc chelator compound. Such compounds include lactate, sulfate, nitrate, chloride, citrate, anions, and the like. Mechanism of actions may include ionic interaction (as in a salt) or covalent binding. Another variable is the concentration of one or more zinc chelators in a zinc chelating system. Generally, the more of a zinc chelator the more zinc chelation is observed. […]
Table 2 is the fluorescent relative intensity of inventive Compound R3 (5.0×10^−5 M) upon the addition of various zinc compounds. Each sample contains the same level of zinc ion (5.0×10^−4 M) in H2O/DMSO (1000:1, V/V) solution, with fluorescence assessed at an excitation of 560 nm.

[2] = Metal ion sensing (fluorescence response of Compound R3 to Zn^2+)
Protocol: (§1) The procedure for metal ion sensing is described. Solutions of the metal ions (10.0 mM) are prepared in deionized water. A stock solutions of Compound R3 (0.2 mM) is prepared in ethanol and then diluted to 20 μM with ethanol-water (1: 1, v/v, pH 7.04) for spectral measurement. For titration experiments, a 2.0 mL solution of Compound R3 (20 μM) is filled in a quartz optical cell of 1 cm optical path length. Zn^2+ stock solution is added into the quartz optical cell gradually by micro-pipette. Spectral data is recorded at 5 min after addition. In selectivity experiments, test samples are prepared by placing appropriate amounts of metal ion stock into 2.0 mL solution of R3 (20 μM). For fluorescence measurements, excitation is provided at 560 nm, while emission is collected from 565 nm to 700 nm.

[3] = Metal ion sensing (fluorescence response of Compound R3 to Hg^2+); conditions: excitation 560 nm
Protocol: as §1, with “A stock solutions of Compound R3 (0.2 mM) is prepared in ethanol and then diluted to 20 μM with ethanol-water (1: 1, v/v, pH 7.04) for spectral measurement.” left out

[4] = Metal ion sensing (fluorescence response of Compound R3 to Ca^2+); conditions: Compound R3 2.0 × 10^−5M + Ca^2+ 20.0 × 10^−5M, ethanol-PBS (1:1, v/v, pH 8.04), excitation 560 nm
Protocol: as §1, with “A stock solutions of Compound R3 (0.2 mM) is prepared in ethanol and then diluted to 20 μM with ethanol-water (1: 1, v/v, pH 7.04) for spectral measurement.” left out

[5] = Metal ion sensing (fluorescence response of Compound R3 to other metal ions); conditions: excitation 560 nm
Protocol: as §1, with “A stock solutions of Compound R3 (0.2 mM) is prepared in ethanol and then diluted to 20 μM with ethanol-water (1: 1, v/v, pH 7.04) for spectral measurement.” left out

HeLa cells = assay: Fluorescence imaging of intracellular Zn^2+ (CLSM); format: cell-based; conditions: λex 543 nm, emission 560-660 nm
Protocol: Confocal fluorescence imaging is performed with an OLYMPUS IX81 laser scanning microscope and a 60 ×oil-immersion objective lens. The microscope is equipped with multiple visible laser lines (405, 488, 543 nm). Images are collected and processed with Olympus FV10-ASW software.
The HeLa cell line is provided by Biochemistry and Cell Biology (China). Cells are grown in DMEM (Dulbecco's modified Eagle's medium) supplemented with 10% FBS (Fetal Bovine serum) and 5% CO2 at 37° C.
HeLa cells ([…]) are plated on […] glass cover slips and allowed to adhere for 24 hours. 10 μM of Compound R3 in the culture media containing 0.2% (v/v) DMSO is added to the cells. The cells are incubated at 37° C. for 30 min, and washed with PBS three times to remove the excess R3 probe and bathed in PBS (2 mL) before imaging. After washing with PBS (2 mL×3) to remove the excess probe, the cells are treated with 50 μM Zinc lactate for 30 min. Excitation of Compound R3 loaded cells at 543 nm is carried out with a semiconductor laser, and emission is collected at 560-660 nm (single channel).

[6] = tested on: Streptococcus mutans (ATCC® 700610™); assay: Fluorescence imaging of Zn^2+ in bacteria (CLSM); format: cell-based; conditions: λex 543 nm
Protocol: The Streptococcus mutans is prepared by inoculating the single colony from the BHI agar plate into 5 mL BHI broth and incubating at 37° C. for 48 hours. The Streptococcus mutans are separately stained with 10 μM of Compound R3 at 37° C. for 60 min.
FIG. 2a 2f are CLSM images of Streptococcus mutans (ATCC® 700610™) cells. FIGS. 2a, 2b, and 2c are said cells incubated with 10 μM of inventive Compound R3 for 60 min to assess base level background fluorescence noise. FIGS. 2d, 2e, and 2f are cells from the same sample pool subsequently incubated with 50 μM Zn^2+ for 60 min. And then red channel emission is collected at 560-660 nm for FIGS. 2b and 2e (λex=543 nm), while FIGS. 2a and 2d are bright-field images. FIG. 2c is an overlay of FIG. 2a and FIG. 2b, while FIG. 2f is an overlap of FIG. 2d and FIG. 2e.

SMILES | Relative degree of zinc chelation effectiveness ([1]; among the zinc chelators tested (lactate, sulfate, citrate), from Table 2) | Fluorescence of the solution without metal ion ([2]; Compound R3 20 μM in control ethanol-water (1:1, v/v, pH 7.04), no Zn^2+) | Fluorescence at 580 nm on addition of Zn^2+ ([2]; Compound R3 20 μM, ethanol-water (1:1, v/v, pH 7.04), Zn^2+ 0-12 eq, excitation 560 nm) | Fluorescence intensity in presence of Zn^2+ (selectivity) ([2]; Compound R3 20 μM, ethanol-water (1:1, v/v, pH 7.04), excitation 560 nm) | Peak Fluorescence Intensity (a.u.) at 570-580 nm ([2]; Compound R3 2.0 × 10^−5M + Zn^2+ 20.0 × 10^−5M, ethanol-PBS (1:1, v/v, pH 8.04), excitation 560 nm) [a.u.] | Fluorescence intensity in presence of Hg^2+ (selectivity) ([3]; Compound R3 20 μM, ethanol-water (1:1, v/v, pH 7.04)) | Peak Fluorescence Intensity (a.u.) at 570-580 nm ([3]; Compound R3 2.0 × 10^−5M + Hg^2+ 20.0 × 10^−5M, ethanol-PBS (1:1, v/v, pH 8.04)) [a.u.] | Peak Fluorescence Intensity (a.u.) at 570-580 nm [4] [a.u.] | Fluorescence intensity in presence of other transition and heavy metal ions (selectivity) ([5]; Compound R3 20 μM, ethanol-water (1:1, v/v, pH 7.04), K^+, Ag^+, Ca^2+, Mg^2+, Pb^2+, Ni^2+, Mn^2+, Co^2+, Cd^2+, Cu^2+, Fe^2+, Cr^3+, Li^+, Ba^2+, Fe^3+, Na^+) | Peak Fluorescence Intensity (a.u.) at 570-580 nm ([5]; Compound R3 2.0 × 10^−5M + other metal ions (K^+, Ag^+, Ca^2+, Mg^2+, Pb^2+, Ni^2+, Mn^2+, Co^2+, Cd^2+, Cu^2+, Fe^2+, Cr^3+, Li^+, Ba^2+, Fe^3+, Na^+) 20.0 × 10^−5M, ethanol-PBS (1:1, v/v, pH 8.04)) [a.u.] | Intracellular fluorescence in HeLa cells after Zn^2+ (HeLa cells; 10 μM Compound R3 30 min at 37° C., then 50 μM Zn^2+ 30 min) | Fluorescence emission in HeLa cells without Zn^2+ (HeLa cells; 10 μM Compound R3, 30 min, 37° C., no Zn^2+ (FIG. 1b)) | Fluorescence in Streptococcus mutans after Zn^2+ ([6]; 10 μM Compound R3 60 min at 37° C., then 50 μM Zn^2+ 60 min, emission 560-660 nm (FIG. 2e)) | Fluorescence emission in Streptococcus mutans without Zn^2+ ([6]; 10 μM Compound R3, 60 min, 37° C., emission 560-660 nm, no Zn^2+ (FIG. 2b)) | Peak Fluorescence Intensity (a.u.) at 570-580 nm ([1]; Compound R3 5.0×10^−5 M only (control, no zinc), H2O/DMSO (1000:1, V/V), excitation 560 nm) [a.u.]
CC(O)C(=O)[O-].CC(O)C(=O)[O-].[Zn+2] (stereo not drawn) [zinc lactate, reference compound] | weakest relative degree of zinc chelation effectiveness |  |  |  |  |  |  |  |  |  |  |  |  |  | 
CCN(CC)c1ccc2c(c1)Oc1cc(N(CC)CC)ccc1C21c2ccccc2C(=O)N1CCNCc1ccc[nH]1 [Compound R3, 2-(2-(((1H-pyrrol-2-yl)methyl)amino)ethyl)-3′,6′-bis(diethylamino)spiro[isoindoline-1,9′-xanthen]-3-one] |  | non fluorescent | turned on and grew drastically | greatest fluorescence intensity | 0.7 | greatest fluorescence intensity | 1.0 | 0.25 | minimal fluorescence intensity | <0.1 | significant fluorescence increase | no fluorescence emission | significant fluorescence increase | no fluorescence emission | 0.1
